Data as given in US20210278391A1, “COMPOSITIONS AND METHODS FOR TREATING CARDIOVASCULAR AND METABOLIC CONDITIONS” (The Regents of the University of California, priority 2017, published 2021).

How the values were obtained:
[1] = system: pressure-overloaded mouse heart; assay: Metabolic gene expression (quantitative PCR) in pressure-overloaded mouse heart; assay type: in vivo
From the text: Total RNA was extracted from heart tissues using Trizol Reagent (Invitrogen) according to the manufacturer's instructions. Total RNA was reverse-transcribed into the first-strand cDNA using ProtoScript® II Reverse Transcriptase (New England BioLabs). Then, cDNA transcripts were quantified by the CFX Real-Time PCR System (BioRad). 18sRNA were used for normalization except where indicated. PCR primer information is available upon request.

[2] = system: high fat diet (HFD)-induced obese (DIO) mice; assay: Glucose and insulin tolerance, plasma insulin in DIO mice treated with BT2; assay type: in vivo, mouse; conditions: BT2 40 mg/kg/day 8 weeks
Procedure: (§1) Animals were euthanized using carbon dioxide asphyxiation followed by cervical dislocation and then dissected. Blood was harvested by cardiac puncture and centrifuged to isolate plasma which was stored at −80° C. Acidified citrate dextrose was used as an anticoagulant. Immediately after blood collection, heart, liver, kidneys, and both hind leg quadriceps muscles were removed and snap frozen in liquid nitrogen.
Mice were fasted for 6 hours. For insulin tolerance test, mice were injected (intraperitoneal) with insulin (0.75 U/kg body weight). For glucose tolerance test, mice were injected intraperitoneally with D-glucose (2 g/kg body weight). Experiments were performed between 14:00 and 16:00. Blood was drawn 0, 15, 30, 60, and 120 min after insulin or glucose administration. Blood glucose concentrations were measured through tail bleeding before and at the times indicated after injection. Blood glucose was measured using a portable glucometer (Johnson&Johnson). Plasma insulin and TNFα concentrations were measured by Milliplex Multiplex Immunoassay Kits MMHMAG-44K-14 (Merck Millipore, Darmstadt, Germany).

BCKD = BCKD activity in tissues of ob/ob mice treated with BT2; assay type: in vivo, mouse; conditions: BT2 40 mg/kg/day oral gavage 10 weeks
Procedure: as §1
Assays for the BCKD activity were carried out as prescribed previously (Tso et al. (2014), supra). Briefly, frozen tissues were thawed and homogenized in a homogenizing buffer (30 mM KPi, pH 7.5, 3 mM EDTA, 5 mM DTT, 1 mM KIC, 3% fetal bovine serum, 5% Triton X-100, and 1 μM leupeptin). Samples were spun at 25,000×g and supernatants were collected. Diluted samples were placed in 24-well assay plates with assay buffer (30 mMKPi, pH7.5, 0.4 mM CoA, 3 mM NAD, 5% fetal bovine serum, 2 mM thiamine diphosphate, 2 mM MgCl2, and 65 μg of human E3). Keto [1-^14C] isovalerate substrate was added and assay plates were incubated at 37° C. for 30 min. 20% TCA solution was added to stop the reactions. Assay plates were incubated further at 37° C. for 45 min. ^14CO2 trapped on 2 M NaOH soaked filter wicks was counted in a liquid scintillation counter.

O=C(O)c1sc2cc(Cl)ccc2c1Cl [BT2, 3,6-dichlorobenzo[b]thiophene-2-carboxylic acid]
PDK4 mRNA level ([1]; BT2 treated mouse heart): trend of increase | gene expression related to glucose transport ([1]; BT2 treated mouse heart): unaffected | mRNA level of CD36 ([1]; BT2 treated mouse heart post-TAC): moderately increased | genes related to fatty acid β-oxidation (Acox1, Acadm) ([1]; BT2 treated mouse hearts): mild increase | mitochondrial DNA amount and PGC-1a mRNA levels ([1]; vehicle vs BT2, post-sham or post-TAC): unaffected | glucose tolerance [2]: improved | hyperinsulinemia [2]: improved | insulin sensitivity [2]: improved | BCKD activity in different tissues including white adipose tissues (BCKD): significantly enhanced
